Measured values reported in PubChem BioAssay (NCI).
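A five-concentration, 48-hour dose response in 96-well plates underlies each endpoint, interpolated linearly between surrounding concentrations. Definition used: TGI = concentration required for complete inhibition of growth.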

Columns and labels:
Test in all cases: NCI-60 cell line screen, 48 h
OVCAR-4 ovarian = tested on: OVCAR-4 ovarian
K-562 leukemia = tested on: K-562 leukemia
HOP-92 NSCLC = tested on: HOP-92 NSCLC
ACHN renal = tested on: ACHN renal
SF-539 CNS = tested on: SF-539 CNS
TK-10 renal = tested on: TK-10 renal
SNB-19 CNS = tested on: SNB-19 CNS
CCRF-CEM leukemia = tested on: CCRF-CEM leukemia
RXF 393 renal = tested on: RXF 393 renal
COLO 205 colon = tested on: COLO 205 colon
MDA-MB-231 breast = tested on: MDA-MB-231 breast
A498 renal = tested on: A498 renal
SK-MEL-5 melanoma = tested on: SK-MEL-5 melanoma
HCC-2998 colon = tested on: HCC-2998 colon
A549 NSCLC = tested on: A549 NSCLC
U251 CNS = tested on: U251 CNS
MDA-MB-435 = tested on: MDA-MB-435
MALME-3M melanoma = tested on: MALME-3M melanoma
NCI-H226 lung = tested on: NCI-H226 lung
NCI-H460 lung = tested on: NCI-H460 lung
MOLT-4 leukemia = tested on: MOLT-4 leukemia
NCI-H522 lung = tested on: NCI-H522 lung
BT-549 breast = tested on: BT-549 breast
NCI/ADR-RES ovarian = tested on: NCI/ADR-RES ovarian
SF-295 CNS = tested on: SF-295 CNS
SNB-75 CNS = tested on: SNB-75 CNS
SK-MEL-2 melanoma = tested on: SK-MEL-2 melanoma
UACC-257 melanoma = tested on: UACC-257 melanoma
M14 melanoma = tested on: M14 melanoma
EKVX NSCLC = tested on: EKVX NSCLC
MCF7 breast = tested on: MCF7 breast
UACC-62 melanoma = tested on: UACC-62 melanoma
HT29 colon = tested on: HT29 colon
OVCAR-8 ovarian = tested on: OVCAR-8 ovarian
IGROV1 ovarian = tested on: IGROV1 ovarian
SK-OV-3 ovarian = tested on: SK-OV-3 ovarian
SW-620 colon = tested on: SW-620 colon
MDA-N = tested on: MDA-N
PC-3 prostate = tested on: PC-3 prostate
HCT-116 colon = tested on: HCT-116 colon
HOP-62 NSCLC = tested on: HOP-62 NSCLC
KM12 colon = tested on: KM12 colon
CAKI-1 renal = tested on: CAKI-1 renal
786-0 renal = tested on: 786-0 renal
SF-268 CNS = tested on: SF-268 CNS
LOX IMVI melanoma = tested on: LOX IMVI melanoma
HCT-15 colon = tested on: HCT-15 colon
RPMI-8226 leukemia = tested on: RPMI-8226 leukemia
SN12C renal = tested on: SN12C renal
OVCAR-5 ovarian = tested on: OVCAR-5 ovarian

Measured: TGI

CN1Cc2cc3cc4c(cc3nc2N(C)C1)OCCO4
> 100 µM: OVCAR-4 ovarian | K-562 leukemia | HOP-92 NSCLC | ACHN renal | SF-539 CNS | TK-10 renal | SNB-19 CNS | CCRF-CEM leukemia | RXF 393 renal | COLO 205 colon | MDA-MB-231 breast | A498 renal | SK-MEL-5 melanoma | HCC-2998 colon | A549 NSCLC | U251 CNS | MDA-MB-435 | MALME-3M melanoma | NCI-H226 lung | NCI-H460 lung | MOLT-4 leukemia | NCI-H522 lung | BT-549 breast | NCI/ADR-RES ovarian | SF-295 CNS | SNB-75 CNS | SK-MEL-2 melanoma | UACC-257 melanoma | M14 melanoma | EKVX NSCLC | MCF7 breast | UACC-62 melanoma | HT29 colon | OVCAR-8 ovarian | IGROV1 ovarian | SK-OV-3 ovarian | SW-620 colon | MDA-N | PC-3 prostate | HCT-116 colon | HOP-62 NSCLC | KM12 colon | CAKI-1 renal | 786-0 renal | SF-268 CNS | LOX IMVI melanoma | HCT-15 colon | RPMI-8226 leukemia | SN12C renal | OVCAR-5 ovarian
